In ChEMBL document CHEMBL5126662, “Expanding the Ajudazol Cytotoxin Scaffold: Insights from Genome Mining, Biosynthetic Investigations, and Novel Derivatives” (J Nat Prod, 2022):
The source made the active and inactive calls.

How the values were obtained:
Type in all cases: functional, cell-based
Details in all cases: time 5.0 day
HCT-116 = assay: Antiproliferative activity against human HCT-116 cells assessed as reduction in cell viability after 5 days by MTT assay
HepG2 = assay: Antiproliferative activity against human HepG2 cells assessed as reduction in cell viability after 5 days by MTT assay
KB 3-1 = assay: Antiproliferative activity against human KB3.1 cells assessed as reduction in cell viability after 5 days by MTT assay

Measured: Activity

CC(C)=CC(=O)N(C)C/C=C/CC/C=C/C=C/CC(O)(CO)c1nc(C[C@@H](C)[C@H]2OC(=O)c3c(ccc(C)c3O)[C@@H]2O)co1 (some centres undefined)
active: all assays above

CC(C)=CC(=O)N(C)C/C=C/CC/C=C/C=C/CC(C)(O)c1nc(C[C@@H](C)[C@H]2OC(=O)c3c(ccc(C)c3O)[C@@H]2O)co1 (some centres undefined)
active: all assays above

CC(C)=CC(=O)N(C)C/C=C/CC/C=C/C=C/CC(O)(CO[C@@H]1O[C@H](CO)[C@@H](O)[C@H](O)[C@H]1O)c1nc(C[C@@H](C)[C@H]2OC(=O)c3c(ccc(C)c3O)[C@@H]2O)co1 (some centres undefined)
active: all assays above

CC(C)=CC(=O)N(C)C/C=C/CC/C=C/C=C/CC(O)(CO[C@@H]1O[C@H](CO)[C@@H](O)[C@@H]1O)c1nc(C[C@@H](C)[C@H]2OC(=O)c3c(ccc(C)c3O)[C@@H]2O)co1 (some centres undefined)
active: all assays above

C=C(C/C=C/C=C/CC/C=C/CN(C)C(=O)C=C(C)C)c1nc(C[C@@H](C)[C@H]2OC(=O)c3c(ccc(C)c3O)[C@@H]2O)co1
active: all assays above

CC(C)=CC(=O)N(C)C/C=C/CC/C=C/C=C/C[C@@H](C)c1nc(C[C@@H](C)[C@H]2OC(=O)c3c(ccc(C)c3O)[C@@H]2O)co1
active: all assays above

C=C(C/C=C/C=C/CC/C=C/CN(C)C(=O)/C=C(\C)CO)c1nc(C[C@@H](C)[C@H]2OC(=O)c3c(ccc(C)c3O)[C@@H]2O)co1
active: all assays above

C=C(C/C=C/C=C/CC/C=C/CN(C)C(=O)C=C(C)C)c1nc(C[C@@H](C)[C@H]2OC(=O)c3c(ccc(C)c3O)[C@@H]2O[C@@H]2O[C@H](CO)[C@@H](O)[C@H](O)[C@H]2O)co1
active: all assays above
